Measurements: PubChem BioAssay (NCI)
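Dose response: 5 concentrations. Exposure: 48 h. Format: 96-well plates. Endpoint: linear interpolation; highest concentration if not reached. TGI marks complete inhibition of growth.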

Columns and labels:
Experiment in all cases: growth of human tumour cells (NCI), 48 h
786-0 renal = system: 786-0 renal
A498 renal = system: A498 renal
ACHN renal = system: ACHN renal
BT-549 breast = system: BT-549 breast
CAKI-1 renal = system: CAKI-1 renal
CCRF-CEM leukemia = system: CCRF-CEM leukemia
COLO 205 colon = system: COLO 205 colon
DU-145 prostate = system: DU-145 prostate
EKVX NSCLC = system: EKVX NSCLC
HCT-116 colon = system: HCT-116 colon
HCT-15 colon = system: HCT-15 colon
HL-60(TB) leukemia = system: HL-60(TB) leukemia
HOP-62 NSCLC = system: HOP-62 NSCLC
HS 578T breast = system: HS 578T breast
HT29 colon = system: HT29 colon
IGROV1 ovarian = system: IGROV1 ovarian
K-562 leukemia = system: K-562 leukemia
KM12 colon = system: KM12 colon
LOX IMVI melanoma = system: LOX IMVI melanoma
M14 melanoma = system: M14 melanoma
MALME-3M melanoma = system: MALME-3M melanoma
MCF7 breast = system: MCF7 breast
MDA-MB-231 breast = system: MDA-MB-231 breast
MDA-MB-435 = system: MDA-MB-435
MOLT-4 leukemia = system: MOLT-4 leukemia
NCI-H226 lung = system: NCI-H226 lung
NCI-H23 lung = system: NCI-H23 lung
NCI-H460 lung = system: NCI-H460 lung
NCI/ADR-RES ovarian = system: NCI/ADR-RES ovarian
OVCAR-3 ovarian = system: OVCAR-3 ovarian
OVCAR-5 ovarian = system: OVCAR-5 ovarian
OVCAR-8 ovarian = system: OVCAR-8 ovarian
PC-3 prostate = system: PC-3 prostate
RPMI-8226 leukemia = system: RPMI-8226 leukemia
SF-268 CNS = system: SF-268 CNS
SF-295 CNS = system: SF-295 CNS
SF-539 CNS = system: SF-539 CNS
SK-MEL-2 melanoma = system: SK-MEL-2 melanoma
SK-MEL-28 melanoma = system: SK-MEL-28 melanoma
SK-MEL-5 melanoma = system: SK-MEL-5 melanoma
SK-OV-3 ovarian = system: SK-OV-3 ovarian
SN12C renal = system: SN12C renal
SNB-19 CNS = system: SNB-19 CNS
SNB-75 CNS = system: SNB-75 CNS
SR leukemia = system: SR leukemia
SW-620 colon = system: SW-620 colon
TK-10 renal = system: TK-10 renal
UACC-257 melanoma = system: UACC-257 melanoma
UACC-62 melanoma = system: UACC-62 melanoma
A549 NSCLC = system: A549 NSCLC
HCC-2998 colon = system: HCC-2998 colon
NCI-H522 lung = system: NCI-H522 lung
OVCAR-4 ovarian = system: OVCAR-4 ovarian
RXF 393 renal = system: RXF 393 renal
U251 CNS = system: U251 CNS
UO-31 renal = system: UO-31 renal

SMILES: COC1=CC(=O)N(C(=O)C2CSC(C(CO)NC(=O)c3csc(/C=N/O)n3)=N2)C1 (centres undefined)
- TGI (786-0 renal): > 100 µM
- TGI (A498 renal): > 100 µM
- TGI (ACHN renal): > 100 µM
- TGI (BT-549 breast): > 100 µM
- TGI (CAKI-1 renal): > 100 µM
- TGI (CCRF-CEM leukemia): > 100 µM
- TGI (COLO 205 colon): > 100 µM
- TGI (DU-145 prostate): > 100 µM
- TGI (EKVX NSCLC): > 100 µM
- TGI (HCT-116 colon): > 100 µM
- TGI (HCT-15 colon): > 100 µM
- TGI (HL-60(TB) leukemia): > 100 µM
- TGI (HOP-62 NSCLC): > 100 µM
- TGI (HS 578T breast): > 100 µM
- TGI (HT29 colon): > 100 µM
- TGI (IGROV1 ovarian): > 100 µM
- TGI (K-562 leukemia): > 100 µM
- TGI (KM12 colon): > 100 µM
- TGI (LOX IMVI melanoma): > 100 µM
- TGI (M14 melanoma): > 100 µM
- TGI (MALME-3M melanoma): > 100 µM
- TGI (MCF7 breast): > 100 µM
- TGI (MDA-MB-231 breast): > 100 µM
- TGI (MDA-MB-435): > 100 µM
- TGI (MOLT-4 leukemia): > 100 µM
- TGI (NCI-H226 lung): > 100 µM
- TGI (NCI-H23 lung): > 100 µM
- TGI (NCI-H460 lung): > 100 µM
- TGI (NCI/ADR-RES ovarian): > 100 µM
- TGI (OVCAR-3 ovarian): > 100 µM
- TGI (OVCAR-5 ovarian): > 100 µM
- TGI (OVCAR-8 ovarian): > 100 µM
- TGI (PC-3 prostate): > 100 µM
- TGI (RPMI-8226 leukemia): > 100 µM
- TGI (SF-268 CNS): > 100 µM
- TGI (SF-295 CNS): > 100 µM
- TGI (SF-539 CNS): > 100 µM
- TGI (SK-MEL-2 melanoma): > 100 µM
- TGI (SK-MEL-28 melanoma): > 100 µM
- TGI (SK-MEL-5 melanoma): > 100 µM
- TGI (SK-OV-3 ovarian): > 100 µM
- TGI (SN12C renal): > 100 µM
- TGI (SNB-19 CNS): > 100 µM
- TGI (SNB-75 CNS): 91 µM
- TGI (SR leukemia): > 100 µM
- TGI (SW-620 colon): > 100 µM
- TGI (TK-10 renal): > 100 µM
- TGI (UACC-257 melanoma): > 100 µM
- TGI (UACC-62 melanoma): > 100 µM

SMILES: OCCCC(O)(c1ccccc1)c1ccccc1
- TGI (786-0 renal): > 100 µM
- TGI (A549 NSCLC): > 100 µM
- TGI (ACHN renal): > 100 µM
- TGI (BT-549 breast): > 100 µM
- TGI (CCRF-CEM leukemia): > 100 µM
- TGI (EKVX NSCLC): > 100 µM
- TGI (HCC-2998 colon): > 100 µM
- TGI (HCT-15 colon): > 100 µM
- TGI (HL-60(TB) leukemia): > 100 µM
- TGI (HOP-62 NSCLC): > 100 µM
- TGI (HS 578T breast): > 100 µM
- TGI (HT29 colon): > 100 µM
- TGI (IGROV1 ovarian): > 100 µM
- TGI (K-562 leukemia): > 100 µM
- TGI (KM12 colon): > 100 µM
- TGI (LOX IMVI melanoma): > 100 µM
- TGI (M14 melanoma): > 100 µM
- TGI (MALME-3M melanoma): > 100 µM
- TGI (MCF7 breast): > 100 µM
- TGI (MDA-MB-435): > 100 µM
- TGI (MOLT-4 leukemia): > 100 µM
- TGI (NCI-H226 lung): > 100 µM
- TGI (NCI-H23 lung): > 100 µM
- TGI (NCI-H460 lung): > 100 µM
- TGI (NCI-H522 lung): > 100 µM
- TGI (NCI/ADR-RES ovarian): > 100 µM
- TGI (OVCAR-3 ovarian): > 100 µM
- TGI (OVCAR-4 ovarian): > 100 µM
- TGI (OVCAR-5 ovarian): > 100 µM
- TGI (OVCAR-8 ovarian): > 100 µM
- TGI (PC-3 prostate): > 100 µM
- TGI (RPMI-8226 leukemia): > 100 µM
- TGI (RXF 393 renal): > 100 µM
- TGI (SF-268 CNS): > 100 µM
- TGI (SF-295 CNS): > 100 µM
- TGI (SF-539 CNS): > 100 µM
- TGI (SK-MEL-2 melanoma): > 100 µM
- TGI (SK-MEL-28 melanoma): > 100 µM
- TGI (SK-MEL-5 melanoma): > 100 µM
- TGI (SK-OV-3 ovarian): > 100 µM
- TGI (SN12C renal): > 100 µM
- TGI (SNB-19 CNS): > 100 µM
- TGI (SNB-75 CNS): > 100 µM
- TGI (SR leukemia): > 100 µM
- TGI (SW-620 colon): > 100 µM
- TGI (TK-10 renal): > 100 µM
- TGI (U251 CNS): > 100 µM
- TGI (UACC-257 melanoma): > 100 µM
- TGI (UACC-62 melanoma): > 100 µM
- TGI (UO-31 renal): > 100 µM
